Among the test systems are RXF 393; HCC 2998; TK-10; NCI-H226; UACC-62; DU-145; A549; HL-60; M14; NCI-H23; UACC-257; NCI/ADR-RES; MCF7; BT-549; HCT-15; HOP-92; Malme-3M; MDA-N; SR.
Test in all cases: NCI-60 cell line screen, 48 h

The record followed here is ChEMBL document CHEMBL1201862, “PubChem BioAssay data set” (2004).

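Briefly, cells in 96-well plates were exposed to five compound concentrations for 48 h, and endpoints were estimated by linear interpolation. GI50 = concentration required for 50% inhibition of growth.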 The source made the active and inactive calls. Rule as the data show it: active = GI50 up to about 1.1 µM and inactive = higher.

In the case of `O=c1[nH]c(=O)c2ncn(-c3ccc([N+](=O)[O-])cn3)c2[nH]1`, the GI50 was > 100 µM (inactive) in the test with RXF 393; > 100 µM (inactive) in the test with HCC 2998; > 100 µM (inactive) with TK-10; > 100 µM (inactive) with NCI-H226; 74.1 µM (inactive) with UACC-62; > 100 µM (inactive) in the test on DU-145. Also, the GI50 in the test on A549, in the test on HL-60, in the test with M14, in the test with NCI-H23, with UACC-257 and with NCI/ADR-RES was > 100 µM (inactive) throughout. The GI50 in the test on MCF7 was > 100 µM (inactive); in the test on BT-549 it was > 100 µM (inactive); in the test on HCT-15, more than 100 µM; in the test with HOP-92, > 100 µM (inactive); in the test on Malme-3M, 2.79 µM (inactive).
With `O=C(Cn1c2ccc(Br)cc2c2nc3ccccc3nc21)NNC(=S)NC1CCCCC1`, the GI50 is 6.89 µM (inactive) in the test on RXF 393; 17.6 µM (inactive) in the test on HCC 2998; 15.4 µM (inactive) in the test on TK-10; 15.4 µM (inactive) in the test on NCI-H226; 15.6 µM (inactive) with UACC-62; 15.5 µM (inactive) in the test on DU-145. The GI50 with A549 was 10.6 µM (inactive); in the test with MDA-N, 16.8 µM (inactive); in the test with M14 it was 11.9 µM (inactive); with NCI-H23, 14.4 µM (inactive); in the test on UACC-257, 16.4 µM (inactive); with NCI/ADR-RES, 17.3 µM (inactive). Also, the GI50 was 19.9 µM (inactive) in the test with BT-549, 12 µM in the test with HCT-15, 11.8 µM (inactive) with HOP-92 and 19.7 µM (inactive) with Malme-3M.
For `CCOC(=O)c1cn2c(n1)sc1cccc(C)c12`, the GI50 in the test on RXF 393, in the test on HCC 2998, in the test on TK-10, in the test with NCI-H226, with UACC-62 and with DU-145 was > 100 µM (inactive) throughout. Further, the GI50 in the test with A549, in the test on MDA-N, in the test on M14, in the test with NCI-H23, in the test with UACC-257 and with NCI/ADR-RES was > 100 µM (inactive) in each case. Also, the GI50 in the test on MCF7 was > 100 µM (inactive); in the test on BT-549, > 100 µM (inactive); in the test with HCT-15 it was more than 100 µM; in the test with Malme-3M, > 100 µM (inactive).
For the compound `COC(=O)C1=C(N)C2=C(N)Oc3ccccc3C2CC1=C(C#N)C#N` (stereo unspecified), the GI50 in the test on RXF 393 is 26 µM (inactive); with HCC 2998, 17.9 µM (inactive); in the test with TK-10 it was 25.6 µM (inactive); in the test with NCI-H226, 44.3 µM (inactive); in the test with UACC-62 it was 18.1 µM (inactive); in the test with DU-145 it was 26.5 µM (inactive). Also, the GI50 in the test with A549 is 32.6 µM (inactive); in the test on HL-60, 29.2 µM (inactive); with M14, 19.4 µM (inactive); in the test with NCI-H23 it was 19.6 µM (inactive); in the test with UACC-257 it was 34.7 µM (inactive); with NCI/ADR-RES it was 20.2 µM (inactive). In addition, the GI50 with MCF7 was 12.7 µM (inactive); in the test with BT-549, 23.4 µM (inactive); in the test with HCT-15, 17.2 µM; in the test with Malme-3M, 21.6 µM (inactive); in the test with SR, 12.6 µM (inactive).
Turning to `COc1ccc([N+](=O)[O-])cc1[I+]c1cc([N+](=O)[O-])ccc1OC`, the GI50 in the test on RXF 393 was 27.7 µM (inactive); with HCC 2998, 42.2 µM (inactive); in the test with TK-10 it was 58.6 µM (inactive); in the test on NCI-H226, 53.2 µM (inactive); in the test with UACC-62, 23.2 µM (inactive); with DU-145, > 100 µM (inactive). The GI50 in the test on A549 is 45.8 µM (inactive); in the test on HL-60, 20.7 µM (inactive); with M14, 39.6 µM (inactive); with NCI-H23 it was 55.1 µM (inactive); in the test with UACC-257, 33.6 µM (inactive); in the test with NCI/ADR-RES, > 100 µM (inactive). Besides, the GI50 in the test with MCF7 was 31.9 µM (inactive); in the test on BT-549, 30.9 µM (inactive); in the test on HCT-15, 41.1 µM; in the test on Malme-3M, 4.47 µM (inactive); in the test on SR, 12.3 µM (inactive).
Regarding `COC1OC(Cc2nnc(C)o2)C(OCc2ccccc2)C(OCc2ccccc2)C1OCc1ccccc1` (stereo unspecified), the GI50 with RXF 393 is 18.3 µM (inactive); in the test on NCI-H226 it was 29.5 µM (inactive); in the test on UACC-62 it was 17 µM (inactive); with DU-145, 40.8 µM (inactive); in the test with A549, 27.2 µM (inactive); in the test with HL-60 it was 26.2 µM (inactive). For the same compound, the GI50 in the test on M14 was 31 µM (inactive); in the test on NCI-H23, 19.9 µM (inactive); with UACC-257, 17.2 µM (inactive); in the test with NCI/ADR-RES, 24.3 µM (inactive); with MCF7 it was 20.3 µM (inactive); in the test with BT-549, 25.7 µM (inactive). Moreover, the GI50 in the test with HCT-15 was 35.9 µM; in the test on HOP-92, 35.3 µM (inactive); in the test with Malme-3M, 15.5 µM (inactive); with SR it was 13.2 µM (inactive).
In the case of `CC(C)(C)c1cc2c(O)c(c1)COCc1cc(C(C)(C)C)cc(c1O)COCc1cc(C(C)(C)C)cc(c1O)COC2`, the GI50 in the test on RXF 393 was 32.4 µM (inactive); in the test with HCC 2998, > 100 µM (inactive); in the test on TK-10 it was > 100 µM (inactive); in the test on NCI-H226, > 100 µM (inactive); in the test with UACC-62, > 100 µM (inactive); with DU-145 it was 32.5 µM (inactive). The GI50 in the test on A549 is > 100 µM (inactive); with HL-60 it was 31.1 µM (inactive); in the test on M14, 88.5 µM (inactive); with NCI-H23, 46.1 µM (inactive); in the test on UACC-257, > 100 µM (inactive); in the test on NCI/ADR-RES, > 100 µM (inactive). The GI50 is > 100 µM (inactive) with MCF7; > 100 µM (inactive) in the test on BT-549; more than 100 µM in the test on HCT-15; > 100 µM (inactive) in the test on HOP-92; > 100 µM (inactive) in the test on SR.
Regarding `CC1=NN(c2nc(N)nc(-c3sccc3N)n2)C(C)(C)C1`, the GI50 with HCC 2998 was > 100 µM (inactive); with TK-10, > 100 µM (inactive); with NCI-H226 it was 33.1 µM (inactive); with UACC-62, 58.3 µM (inactive); in the test on DU-145 it was > 100 µM (inactive); in the test with A549, 35.8 µM (inactive). Also, the GI50 in the test with MDA-N is 75.9 µM (inactive); with HL-60 it was 71.3 µM (inactive); in the test on M14 it was 23.9 µM (inactive); in the test with NCI-H23, 64.9 µM (inactive); in the test with UACC-257, > 100 µM (inactive); in the test with NCI/ADR-RES, 37.1 µM (inactive). Further, the GI50 with MCF7 is 78 µM (inactive); in the test on BT-549 it was 56.1 µM (inactive); in the test with HCT-15 it was 59.4 µM; in the test on HOP-92, > 100 µM (inactive); in the test with Malme-3M, 47.3 µM (inactive).
Regarding `COc1ccc2cc(CNCCCCCCNC(=O)Nc3cccc4ccccc34)ccc2c1`, the GI50 with RXF 393, in the test on HCC 2998, with TK-10, with NCI-H226, with UACC-62 and with DU-145 was > 100 µM (inactive) in each case. In addition, the GI50 in the test on A549, in the test on MDA-N, in the test on HL-60, in the test on M14, in the test on NCI-H23 and in the test with UACC-257 was > 100 µM (inactive) in each case. Besides, the GI50 in the test with MCF7 was > 100 µM (inactive); in the test on BT-549, > 100 µM (inactive); in the test with HCT-15 it was more than 100 µM; in the test on HOP-92, > 100 µM (inactive); in the test on Malme-3M, > 100 µM (inactive); with SR, > 100 µM (inactive).
In the case of `O=C(O)C(F)(OC(F)(F)C(F)(F)C(F)(F)F)C(F)(F)F` (stereo unspecified), the GI50 with RXF 393, in the test on HCC 2998, in the test on TK-10, with NCI-H226, in the test on UACC-62 and in the test on DU-145 was > 100 µM (inactive) in each case. Also, the GI50 in the test on A549, in the test on HL-60, with M14, in the test on NCI-H23, with UACC-257 and in the test on NCI/ADR-RES was > 100 µM (inactive) throughout. Further, the GI50 with MCF7 was > 100 µM (inactive); with BT-549, > 100 µM (inactive); with HCT-15, more than 100 µM; in the test with HOP-92, > 100 µM (inactive); with Malme-3M, > 100 µM (inactive).
For `CCCCCCCCCCCCOP(=O)(O)OP(=O)(O)OCC1OC(n2ccc(N)nc2=O)CC1O` (stereo unspecified), the GI50 in the test with RXF 393, in the test on HCC 2998, in the test on TK-10, in the test on NCI-H226, with UACC-62 and with A549 was > 100 µM (inactive) throughout. The GI50 in the test on MDA-N, in the test with HL-60, in the test on M14, in the test on NCI-H23, with UACC-257 and in the test with NCI/ADR-RES was > 100 µM (inactive) each time. Also, the GI50 was > 100 µM (inactive) in the test with MCF7; > 100 µM (inactive) in the test on BT-549; more than 100 µM in the test on HCT-15; > 100 µM (inactive) with HOP-92; > 100 µM (inactive) with Malme-3M.
As to `CC(C(=O)N1C(=O)N(C(=O)[C@H](C)C(O)c2ccccc2)[C@H](c2ccccc2)[C@H]1c1ccccc1)[C@@H](O)c1ccccc1` (stereo partly specified), the GI50 in the test on HCC 2998 was 36.7 µM (inactive); in the test on TK-10, 41.2 µM (inactive); in the test with NCI-H226, 27 µM (inactive); with UACC-62, 14.6 µM (inactive); with DU-145, 50.5 µM (inactive); with A549, 33 µM (inactive). Also, the GI50 in the test on MDA-N is 20 µM (inactive); with HL-60 it was 22 µM (inactive); in the test on M14, 28.5 µM (inactive); with NCI-H23, 44.4 µM (inactive); in the test on UACC-257, 28.4 µM (inactive); with MCF7, 26.6 µM (inactive). Besides, the GI50 is 6.04 µM (inactive) in the test on BT-549, 45.7 µM in the test with HCT-15, 25.6 µM (inactive) in the test with HOP-92 and 0.118 µM (active) in the test with SR.
